In PubChem BioAssay (NCI):
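Interpolation was linear, between the two tested concentrations surrounding the appropriate level; five concentrations were tested over 48 hours in 96-well plates. The concentration for full growth arrest is given as TGI.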

Columns and labels:
Assay in all cases: DTP human tumour cell line panel, 48 h
786-0 renal = system: 786-0 renal
A498 renal = system: A498 renal
A549 NSCLC = system: A549 NSCLC
ACHN renal = system: ACHN renal
BT-549 breast = system: BT-549 breast
CAKI-1 renal = system: CAKI-1 renal
CCRF-CEM leukemia = system: CCRF-CEM leukemia
COLO 205 colon = system: COLO 205 colon
DU-145 prostate = system: DU-145 prostate
EKVX NSCLC = system: EKVX NSCLC
HCC-2998 colon = system: HCC-2998 colon
HCT-116 colon = system: HCT-116 colon
HCT-15 colon = system: HCT-15 colon
HOP-62 NSCLC = system: HOP-62 NSCLC
HS 578T breast = system: HS 578T breast
HT29 colon = system: HT29 colon
IGROV1 ovarian = system: IGROV1 ovarian
K-562 leukemia = system: K-562 leukemia
KM12 colon = system: KM12 colon
LOX IMVI melanoma = system: LOX IMVI melanoma
M14 melanoma = system: M14 melanoma
MALME-3M melanoma = system: MALME-3M melanoma
MCF7 breast = system: MCF7 breast
MDA-MB-231 breast = system: MDA-MB-231 breast
MDA-MB-435 = system: MDA-MB-435
MDA-N = system: MDA-N
MOLT-4 leukemia = system: MOLT-4 leukemia
NCI-H226 lung = system: NCI-H226 lung
NCI-H23 lung = system: NCI-H23 lung
NCI-H522 lung = system: NCI-H522 lung
NCI/ADR-RES ovarian = system: NCI/ADR-RES ovarian
OVCAR-5 ovarian = system: OVCAR-5 ovarian
OVCAR-8 ovarian = system: OVCAR-8 ovarian
PC-3 prostate = system: PC-3 prostate
RPMI-8226 leukemia = system: RPMI-8226 leukemia
RXF 393 renal = system: RXF 393 renal
SF-268 CNS = system: SF-268 CNS
SF-295 CNS = system: SF-295 CNS
SF-539 CNS = system: SF-539 CNS
SK-MEL-2 melanoma = system: SK-MEL-2 melanoma
SK-MEL-28 melanoma = system: SK-MEL-28 melanoma
SK-OV-3 ovarian = system: SK-OV-3 ovarian
SN12C renal = system: SN12C renal
SNB-19 CNS = system: SNB-19 CNS
SNB-75 CNS = system: SNB-75 CNS
SR leukemia = system: SR leukemia
SW-620 colon = system: SW-620 colon
T-47D breast = system: T-47D breast
TK-10 renal = system: TK-10 renal
U251 CNS = system: U251 CNS
UACC-257 melanoma = system: UACC-257 melanoma
UACC-62 melanoma = system: UACC-62 melanoma
UO-31 renal = system: UO-31 renal

## O=[n+]1cnn([O-])c2ccccc21
786-0 renal
  TGI: 42.1 µM
A498 renal
  TGI: > 100 µM
A549 NSCLC
  TGI: > 100 µM
ACHN renal
  TGI: 36.9 µM
BT-549 breast
  TGI: 54.4 µM
CAKI-1 renal
  TGI: 55.1 µM
CCRF-CEM leukemia
  TGI: > 100 µM
COLO 205 colon
  TGI: 40.7 µM
DU-145 prostate
  TGI: > 100 µM
EKVX NSCLC
  TGI: 91.7 µM
HCC-2998 colon
  TGI: > 100 µM
HCT-116 colon
  TGI: 36.9 µM
HCT-15 colon
  TGI: 35.6 µM
HOP-62 NSCLC
  TGI: 49.9 µM
HS 578T breast
  TGI: > 100 µM
HT29 colon
  TGI: 40.4 µM
IGROV1 ovarian
  TGI: 28.5 µM
K-562 leukemia
  TGI: > 100 µM
KM12 colon
  TGI: 40.4 µM
LOX IMVI melanoma
  TGI: > 100 µM
M14 melanoma
  TGI: 64 µM
MALME-3M melanoma
  TGI: 47.6 µM
MCF7 breast
  TGI: 44.4 µM
MDA-MB-231 breast
  TGI: 31 µM
MDA-MB-435
  TGI: > 100 µM
MDA-N
  TGI: 44.2 µM
MOLT-4 leukemia
  TGI: > 100 µM
NCI-H226 lung
  TGI: > 100 µM
NCI-H23 lung
  TGI: > 100 µM
NCI-H522 lung
  TGI: 45.2 µM
NCI/ADR-RES ovarian
  TGI: > 100 µM
OVCAR-5 ovarian
  TGI: > 100 µM
OVCAR-8 ovarian
  TGI: > 100 µM
PC-3 prostate
  TGI: > 100 µM
RPMI-8226 leukemia
  TGI: > 100 µM
RXF 393 renal
  TGI: 59.6 µM
SF-268 CNS
  TGI: > 100 µM
SF-295 CNS
  TGI: > 100 µM
SF-539 CNS
  TGI: 55.7 µM
SK-MEL-2 melanoma
  TGI: 96.2 µM
SK-MEL-28 melanoma
  TGI: > 100 µM
SK-OV-3 ovarian
  TGI: > 100 µM
SN12C renal
  TGI: > 100 µM
SNB-19 CNS
  TGI: > 100 µM
SNB-75 CNS
  TGI: > 100 µM
SR leukemia
  TGI: > 100 µM
SW-620 colon
  TGI: 46.1 µM
T-47D breast
  TGI: 29.7 µM
TK-10 renal
  TGI: > 100 µM
U251 CNS
  TGI: > 100 µM
UACC-257 melanoma
  TGI: 37.1 µM
UACC-62 melanoma
  TGI: 39.4 µM
UO-31 renal
  TGI: 94.4 µM
